Measurements published in the NIST ThermoML archive (doi:10.1021/je100353j).
Numbers after ± are expanded uncertainties.

Test: xn = mol fraction of the nth substance listed
Details: Liquid

COC(=O)OC [dimethyl carbonate] + C1CCCCC1
mass density [kg/m3]
Details	x1 = 0.1	x1 = 0.2	x1 = 0.3	x1 = 0.4	x1 = 0.5	x1 = 0.6	x1 = 0.7	x1 = 0.8	x1 = 0.9	x1 = 1
308.15 K, 30000 kPa	–	–	–	–	–	933.3 ± 0.6	966.7 ± 0.5	999.3 ± 0.4	1037.3 ± 0.5	1077 ± 0.7
308.15 K, 40000 kPa	814.6 ± 1.6	836.3 ± 1.4	860.6 ± 1.3	885.2 ± 1.1	912.7 ± 0.9	941.7 ± 0.7	975 ± 0.5	1007.6 ± 0.4	1045.4 ± 0.6	1084.8 ± 0.9
313.15 K, 100 kPa	775.6 ± 0.5	795.8 ± 0.5	818.5 ± 0.5	841.9 ± 0.5	868.6 ± 0.5	896.7 ± 0.4	929.7 ± 0.5	962.3 ± 0.4	1001.1 ± 0.4	1043 ± 0.4
313.15 K, 5000 kPa	780.8 ± 0.7	801.3 ± 0.7	824.1 ± 0.6	847.7 ± 0.6	874.4 ± 0.5	902.6 ± 0.5	935.5 ± 0.5	968 ± 0.4	1006.6 ± 0.4	1048.1 ± 0.4
313.15 K, 10000 kPa	785.6 ± 0.8	806.2 ± 0.8	829.3 ± 0.7	853 ± 0.7	879.8 ± 0.6	908.1 ± 0.5	941 ± 0.5	973.5 ± 0.4	1011.9 ± 0.4	1053 ± 0.5
313.15 K, 20000 kPa	794.8 ± 1.1	815.8 ± 1	839.2 ± 0.9	863.2 ± 0.8	890.2 ± 0.7	918.5 ± 0.6	951.4 ± 0.5	983.8 ± 0.4	1021.8 ± 0.4	1062.3 ± 0.5
313.15 K, 30000 kPa	802.9 ± 1.4	824.2 ± 1.3	848 ± 1.1	872.2 ± 1	899.4 ± 0.8	927.9 ± 0.7	960.8 ± 0.5	993.1 ± 0.4	1030.9 ± 0.5	1071 ± 0.7
313.15 K, 40000 kPa	810.5 ± 1.6	832.1 ± 1.5	856.2 ± 1.3	880.7 ± 1.1	908 ± 0.9	936.7 ± 0.7	969.5 ± 0.5	1001.9 ± 0.3	1039.4 ± 0.5	1079 ± 0.8
